pKd: −log10 of the molar value.
Legend:
Cytochrome P450 2B6 [1] = target: T1, Cytochrome P450 2B6 (Homo sapiens, UniProt P20813); assay: Binding affinity to recombinant CYP2B6 (unknown origin) assessed as spectral dissociation constant-1; settings: read-out: Ks
T1 sequence (P20813 whole entry): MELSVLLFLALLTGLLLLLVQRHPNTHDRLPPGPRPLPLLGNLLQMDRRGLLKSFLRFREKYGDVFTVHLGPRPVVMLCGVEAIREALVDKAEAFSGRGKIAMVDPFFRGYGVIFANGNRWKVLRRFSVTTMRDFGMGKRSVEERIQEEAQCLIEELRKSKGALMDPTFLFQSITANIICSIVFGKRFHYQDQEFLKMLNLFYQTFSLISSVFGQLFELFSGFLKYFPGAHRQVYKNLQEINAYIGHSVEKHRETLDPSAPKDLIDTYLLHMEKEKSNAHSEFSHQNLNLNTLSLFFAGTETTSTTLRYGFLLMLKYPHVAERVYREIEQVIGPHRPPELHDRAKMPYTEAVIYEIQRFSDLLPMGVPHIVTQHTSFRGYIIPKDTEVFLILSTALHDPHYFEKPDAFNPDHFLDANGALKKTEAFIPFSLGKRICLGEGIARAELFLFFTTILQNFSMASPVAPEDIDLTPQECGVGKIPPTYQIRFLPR

Cytochrome P450 2B6 [2] = target: T1, Cytochrome P450 2B6; assay: Drug metabolism assessed as CYP2B6 (unknown origin)-mediated d4-BuOH metabolite formation by measuring km; assay type: ADME
Cytochrome P450 2B6 [3] = target: T1, Cytochrome P450 2B6; assay: Drug metabolism assessed as CYP2B6 (unknown origin)-mediated d4-BuOH metabolite formation by measuring Kcat; assay type: ADME
Cytochrome P450 2B6 [4] = target: T1, Cytochrome P450 2B6; assay: Drug metabolism assessed as CYP2B6 (unknown origin)-mediated d9-BuOH metabolite formation by measuring Kcat; assay type: ADME
Cytochrome P450 2B6 [5] = target: T1, Cytochrome P450 2B6; assay: Binding affinity to recombinant CYP2B6 (unknown origin) assessed as spectral dissociation constant-2; settings: read-out: Ks
Cytochrome P450 2B6 [6] = target: T1, Cytochrome P450 2B6; assay: Drug metabolism assessed as CYP2B6 (unknown origin)-mediated d9-BuOH metabolite formation by measuring km; assay type: ADME
Cytochrome P450 2B6 [7] = target: T1, Cytochrome P450 2B6; assay: Drug metabolism assessed as CYP2B6 (unknown origin)-mediated metabolite formation by measuring Kcat; assay type: ADME
Cytochrome P450 2B6 [8] = target: T1, Cytochrome P450 2B6; assay: Drug metabolism assessed as CYP2B6 (unknown origin)-mediated metabolite formation by measuring km; assay type: ADME

Row | Structure (SMILES) | pKd (Cytochrome P450 2B6 [1]) | Km (Cytochrome P450 2B6 [2]) | Kcat (Cytochrome P450 2B6 [3]) | Kcat (Cytochrome P450 2B6 [4]) | pKd (Cytochrome P450 2B6 [5]) | Km (Cytochrome P450 2B6 [6]) | Kcat (Cytochrome P450 2B6 [7]) | Km (Cytochrome P450 2B6 [8])
1 | [2H]C([2H])([2H])[C@@]([2H])(NC(C)(C)C)C(=O)c1cccc(Cl)c1 | 1.95 | 266 µM | 0.061 s⁻¹ | – | – | – | – | –
2 | [2H]C([2H])([2H])C(N[C@@]([2H])(C)C(=O)c1cccc(Cl)c1)(C([2H])([2H])[2H])C([2H])([2H])[2H] | 4.99 | – | – | 0.02462 s⁻¹ | 2.94 | 279 µM | – | –
3 | [2H]C([2H])([2H])C(N[C@]([2H])(C)C(=O)c1cccc(Cl)c1)(C([2H])([2H])[2H])C([2H])([2H])[2H] | 5.41 | – | – | 0.003865 s⁻¹ | 2.93 | 264 µM | – | –
4 | [2H]C([2H])([2H])[C@]([2H])(NC(C)(C)C)C(=O)c1cccc(Cl)c1 | 2.54 | 131 µM | 0.05578 s⁻¹ | – | – | – | – | –
5 | CC(NC(C)(C)C)C(=O)c1cccc(Cl)c1 (racemic) [BUPROPION] | 3.50 | – | – | – | – | – | 0.14 s⁻¹ | 94.7 µM

— ChEMBL document CHEMBL5214950 (Bioorg Med Chem Lett, 2022)
